According to patent US12023306B2, “Compositions comprising a cannabinoid and spilanthol” (priority 2019, dated 2024):

How the values were obtained:
[1] = test system: NASH induced by a methionine and choline deficient (MCD) diet; assay: MCD diet induced NASH in mice, liver weight; format: in vivo, FVB/NJ mice; settings: same doses, 21 days
Excerpt: (§1) MCD diet in mice is considered a common gold standard model for the development of NASH. In this model, the absence of methionine leads to hepatic injury, inflammation, and fibrosis, and the deficiency of choline leads to macrovesicular steatosis. The MCD diet mouse model has been used in several studies to induce NASH with or without fibrosis.
(§2) NASH was induced in 12 weeks old Male FVB/NJ mice fed with the MCD diet for 21 days. Mice were divided into 5 study groups (12 mice in each group): • 1. Healthy animal group—No induction of NASH by MCD diet. • 2. MCD diet group—with no treatment by either CBD or Spilanthol. • 3. CBD alone group—MCD diet+daily CBD 50 mg/kg treatment. • 4. Spilanthol alone group—MCD diet+daily Spilanthol 10 mg/kg treatment. • 5. Combination treatment group—MCD diet+daily CBD 50 mg/kg and Spilanthol 10 mg/kg treatment.
(§3) Treatment was given via gavage daily for 21 days. […] Body weight was monitored every other day. At the end of day 21 the animals were sacrificed, and study readouts as described below were measured.
(§4) The following readouts were measured in the study as indicators for the therapeutic efficacy of the different treatments: • 1. […] Study Readouts
3. […] The total liver weight was also measured for all mice following the 21 days of the study. […] The average liver weight as measured in the not dieted mice group (healthy) was 1.22 grams. […]

[2] = test system: Dextran Sodium Sulphate (DSS) induced colitis; assay: DSS induced colitis in mice, changes in body weight; format: in vivo, C57BL/6 mice; settings: CBD 50 mg/kg, Spilanthol 10 mg/kg, gavage daily for 8 days; for prevention of the weight loss effect (improvement in outcome vs vehicle): day 9; for average loss of baseline body weight: measured on day 9, vehicle 14.6%
Experimental: (§5) Colitis was induced in 10 weeks old female C57BL/6 mice (Harlan laboratories, Israel) by feeding them for 8 days with 1.5% (w/vol) DSS in the drinking water (Peer et al. Science, 319: 627-630, 2008; Dearling et al. IBD 2010; Dearling et al. IBD 2016), Kedmi et al. Nature Nanotechnology, 2018.
(§6) Mice were divided into 4 study groups (10 mice in each group): 1. Vehicle treatment group; 2. CBD 50 mg/kg treatment group; 3. Spilanthol 10 mg/kg treatment group; and 4. CBD 50 mg/kg+Spilanthol 10 mg/kg combination treatment group (herein “test combination group”). Treatment was given via gavage daily for 8 days. An additional group of 10 healthy mice served as a […] control arm. Body weight was monitored every other day. At the end of day 9 the animals were sacrificed and colon TNFα levels as well as the total length of the length of colon from the cecum to anus were assayed.
(§7) The following readouts were measured in the study as indicators for assessing the amelioration and the therapeutic efficacy of the different treatments: 1. Changes in body weight, 2. Colon's TNFα levels as measured by ELISA kits (R&D Systems, USA), 3. Total length of colon from cecum to anus, as measured by a blinded veterinary doctor.

[3] = test system: Dextran Sodium Sulphate (DSS) induced colitis; assay: DSS induced colitis in mice, total length of colon from cecum to anus; format: in vivo, C57BL/6 mice; settings: for average colon length: CBD 50 mg/kg, Spilanthol 10 mg/kg, gavage daily 8 days, day 9, healthy 7.66, vehicle 4.9 cm; for decrease of colon length from baseline (healthy mice): vehicle 36% decrease
Experimental: as §5, §6, §7

[4] = test system: aspartate aminotransferase (AST); assay: MCD diet induced NASH in mice, AST activity in serum; format: in vivo, FVB/NJ mice; settings: CBD 50 mg/kg, Spilanthol 10 mg/kg, gavage daily for 21 days
Excerpt: as §1, §2
Treatment was given via gavage daily for 21 days. That is, the MCD diet and treatment were initiated simultaneously, so as to examine the treatments' ability both to prevent and treat NASH. Body weight was monitored every other day. At the end of day 21 the animals were sacrificed, and study readouts as described below were measured.
The following readouts were measured in the study as indicators for the therapeutic efficacy of the different treatments: • 1. 1. Liver enzymes activity levels in the serum (ALT and AST). • 2. 2. […] Study Readouts […]

IL-6 = assay: MCD diet induced NASH in mice, IL-6 serum levels by ELISA; format: in vivo, FVB/NJ mice; settings: same doses, 21 days, healthy 88, untreated dieted 2,912 pg/ml
Excerpt: as §1, §2, §3, §4
2. […] Pro-inflammatory cytokine IL-6 levels were also measured in the serum of the mice at the end of the 21 days of the study using a commercial ELISA kit (R&D systems, USA). […]

TNFα = assay: DSS induced colitis in mice, colon TNFα levels by ELISA; format: in vivo, C57BL/6 mice; settings: for average colon TNFα level: CBD 50 mg/kg, Spilanthol 10 mg/kg, gavage daily 8 days, day 9, healthy 486, vehicle 1,116 pg/ml; for reduction in the TNFα increase effect / reduction of colon TNFα level comparing to vehicle / increase of colon TNFα level from baseline (healthy mice): same doses; for reduction in the TNFα increase effect / reduction of colon TNFα level comparing to vehicle: day 9; for increase of colon TNFα level from baseline (healthy mice): vehicle 130% increase
Experimental: as §5, §6, §7

[5] = test system: alanine aminotransferase (ALT); assay: MCD diet induced NASH in mice, ALT activity in serum; format: in vivo, FVB/NJ mice; settings: CBD 50 mg/kg, Spilanthol 10 mg/kg, gavage daily for 21 days, MCD elevation 515 SFU/ml
Excerpt: as §1
NASH was induced in 12 weeks old Male FVB/NJ mice fed with the MCD diet for 21 days. Mice were divided into 5 study groups (12 mice in each group): • 1. Healthy animal group—No induction of NASH by MCD diet. • 2. MCD diet group—with no treatment by either CBD or Spilanthol. • 3. CBD alone group—MCD diet+daily CBD 50 mg/kg treatment. • 4. Spilanthol alone group—MCD diet+daily Spilanthol 10 mg/kg treatment. • 5. […]
as §3, §4
1. Liver enzyme activity levels in serum: The average level of alanine aminotransferase (ALT) activity in the serum of the mice in the different treatment groups was measured using a biochemical autoanalyzer following 21 days of the. […]

ICR mice = settings: acute toxicity; cited from earlier work
[6] = test system: RAW 264.7 murine macrophages; settings: concentrations up to 40 μg/ml; cited from earlier work
[7] = test system: nitric oxide (NO) production; settings: RAW 264.7 murine macrophages; cited from earlier work
[8] = test system: human HEK293 kidney cells; settings: cited from earlier work
Ames test = settings: cited from earlier work

SMILES	reduction in liver weight loss [1]	prevention of the weight loss effect (improvement in outcome vs vehicle) [2] [%]	average loss of baseline body weight [2] [%]	average colon length [3] [cm]	decrease of colon length from baseline (healthy mice) ([3]; same doses) [%]	improvement in outcome (colon shortening effect) ([3]; same doses, vs vehicle) [%]	reduction of the colon shortening effect ([3]; same doses, vs vehicle) [cm]	reduction in AST enzyme activity levels in serum [4]	reduction of the elevated IL-6 serum levels (IL-6)	average colon TNFα level (TNFα) [pg/mL]	reduction in the TNFα increase effect (TNFα) [%]	reduction of colon TNFα level comparing to vehicle (TNFα) [pg/mL]	increase of colon TNFα level from baseline (healthy mice) (TNFα) [%]	reduction of the elevated ALT serum activity levels [5]	median lethal dose (LD50) (ICR mice) [mg/kg]	cytotoxic effects [6]	effect on nitric oxide (NO) production [7]	cytotoxic effect, mean inhibitory concentration (IC50) [8] [µg/mL]	mutagenic effects (Ames test; Ames test)	antimutagenic effects (Ames test; at 25 and 50 μg/ml)
C=C(C)C1CCC(C)=CC1c1c(O)cc(CCCCC)cc1O (stereo not drawn) [CBD, 2-[3-methyl-6-(1-methylethenyl)-2-cyclohexen-1-yl]-5-pentyl-1,3-benzenediol]	38.3%	44	8.2	5.31	30.7	14.9	0.41	neither CBD alone, nor Spilanthol alone has any significant effect	13.5%	928	30	188	91	16.5%						
C/C=C/C=C\CC/C=C/C(=O)NCC(C)C [Spilanthol, (2E,6Z,8E)-N-isobutyl-2,6,8-decatrienamide]	no effect	0	14.6	4.9	36	0		neither CBD alone, nor Spilanthol alone has any significant effect	ineffective	980	21.5	136	101	no effect	113	No cytotoxic effects	stimulatory effect	260	No mutagenic effects	antimutagenic effects of affinin were observed
